Test results reported in patent US6100236A, “Method and composition for treating thrombosis” (La Jolla Cancer Research Foundation, priority 1995, dated 2000).
Where “and” joins values, the source holds several entries; their conditions need not be identical. Equal values may be shown once.

Key:
[1] = system: Electrically induced canine coronary thrombosis; experiment: Electrically induced canine coronary thrombosis, time to full occlusion; assay type: in vivo, dog
Procedure: Male mongrel dogs weighing 14 to 20 kg were selected based on proper aggregation of their platelets in response to arachidonic acid, collagen, and adenosine disphosphate (ADP) and based on similar weights and hemodynamic properties.
Before surgery, the animals were anesthetized with sodium pentobarbital (30 mg/kg, i.v.) and then intubated and ventilated on room air with positive pressure using a respirator (Harvard Apparatus, S. Natick, Mass.) at a volume of 30 ml/kg and a frequency of 12 breaths/min. Surgery, performed under aseptic conditions, was begun with the placement of cannulae into the left carotid artery and jugular vein for monitoring arterial blood pressure (Statham P23 pressure transducer, Gould, Inc., Cardiovascular Products, Oxnard, Calif.) and administering intravenous fluids.
The heart was exposed via a left thoracotomy through the 5th intercostal space. A 2-cm segment of the left circumflex coronary artery (LCCA) was isolated from surrounding tissue by blunt dissection. […] The intra-coronary electrode was constructed by attaching a 25-gauge hypodermic needle tip to a 30-gauge Teflon-insulated silver-coated copper wire. The mechanical occluder was constructed of stainless steel in a C shape with a Teflon screw (2 mm diameter) on top. It was adjusted to control vessel circumference and decrease the reactive hyperemic flow due to a 10-sec (full) occlusion by 50-70% without affecting basal coronary blood flow (FIG. 1). A monopolar epicardial electrode was sutured to the surface of the ventricle in the region of LCCA distribution to monitor ischemic changes in the electrocardiogram (ECG). The left atrium was cannulated with polythylene tubing for administration of the peptide. Continuous recordings of blood pressure, limb lead II ECG, epicardial electrogram, and mean and phasic LCCA blood flow were obtained on a Model 7 polygraph (Grass Instrument Co., Quincy, Mass.).
One hour after the completion of surgery, a 100 micro-amp continuous anodal direct current delivered from a 9 volt nickel-cadmium battery was applied to the intimal surface of the LCCA. The anode of the battery was in series with a 250,000 ohm potentiometer and the intraluminal coronary artery electrode. The electric circuit was completed by placing the cathode in a subcutaneous site. Electrical stimulation was applied for three hours. At the conclusion of each experiment, the heart was fibrillated electrically and quickly removed, and the LCCA was dissected free as far as possible to verify the position of the implanted anodal electrode.
(§1) Animals were randomly assigned to two treatment groups: vehicle control (i.e., normal saline) or RGD peptides at various concentrations. Peptides were administered intra-atrially in both bolus and continuous injections. […] A continuous infusion of the same peptide was then started immediately after completion of this initial injection. Animals that received a 5 mg/kg bolus. also received a 5 mg/kg/hr infusion, whereas animals that received a 10 mg/kg bolus also received a 10 mg/kg/hr infusion. The anti-thrombotic effects of the peptides were monitored until 30 minutes after the occurrence of a persistent, occlusive thrombus or five hours after the initiation of electrical stimulation (whichever resulted first). If an occlusive thrombus had not developed within four hours after the initiation of current, the peptide infusion was stopped.
Coronary thrombosis was quantified as the time to full occlusion. The effects of the various peptide treatments on coronary thrombosis is illustrated in FIG. 4.

platelets [2] = experiment: Ex vivo platelet aggregation after peptide injection in canine coronary thrombosis model; parameters: species or system dog; conditions: for Ex vivo reduction of aggregation relative to control levels: 3 mg/kg
Procedure: For all ex vivo studies (see FIG. 3), control aggregation values were standardized to the percentages of light transmission observed in PRP and PPP samples (0% and 100%, respectively).
as §1
Platelet counts and ex vivo aggregation studies were performed one hour before and 1, 3, and 5 hours after application of anodal direct current.
Platelet aggregation was also determined ex vivo at one, three, and five hours after current application. […]
The average aggregation values determined in these studies for all of the peptide treatments are depicted in FIG. 3. […] The control responses in these studies were 70-80% of maximum. […] Here the control responses were 55-80% of maximum.

platelets [3] = experiment: Ex vivo ADP-stimulated platelet aggregation in baboon PRP; conditions: animal 2; ADP 10 μm; PRP at 0, 1 and 2 hours
Procedure: At one- and two-hour time points, template bleeding times were measured, and blood samples were drawn to assess the hematology aggregation studies. Platelet aggregation studies were performed as described in Example V using ADP as the stimulus.
In addition, platelet aggregation studies were conducted on PRP derived from the second animal. Whole blood was drawn at three time points (0, 1 and 2 hours) of both control and experimental shunts.

[4] = molecular target: T1, Fibronectin receptor (Fn-R) (Homo sapiens, UniProt P05556+P08648); experiment: Competitive ELISA for fibronectin receptor binding; conditions: purified receptor from human placenta, read-out: FnR Binding (IC50)
T1 construct: similarly purified from (100 mM) octyl glucoside-extracted human placenta; from tissue; host or cells: human placenta
Procedure: Peptide binding to purified Fn-R was determined by using a competitive enzyme-linked immunosorbent assay (ELISA) in which fibronectin is immobilized and the binding of solubilized Fn-R is detected with labeled anti-FnR antibodies in the presence of various concentrations of peptide analogue.
Microtiter plates were coated with 110 μl of human fibronectin (at 2 μg/ml) in TBS. The plates were washed three times with TBS that contained 0.05% Tween 20. If necessary, peptides were added after this washing in 10 microliter aliquots. The fibronectin receptor was then added in 2-fold serial dilutions with TBS containing 20 mM octyl glucoside and 2 mM MnCl2. The plates were incubated for three hours at room temperature, washed with 200 μl of the above TBS-Tween buffer. 100 μl of affinity-purified rabbit anti-human fibronectin receptor antibody was added to the wells and the plates were incubated for an additional two hours, washed twice with TBS-Tween and then distilled water. Affinity-purified goat anti-rabbit IgG conjugated to horseradish peroxidase (100 μl) was then added to each well. Bonding reactions were incubated for 16 hours at room temperature. The following day, the plates were washed twice with TBS-Tween and then distilled water. […]
IC50 s for FnR were determined by ELISA (Example III).

[5] = 10 mg/kg bolus + 10 mg/kg/hr infusion, intra-atrial
[6] = 10 mg/kg injection, all three time points

T1 sequence (P08648 42-894 limits assumed): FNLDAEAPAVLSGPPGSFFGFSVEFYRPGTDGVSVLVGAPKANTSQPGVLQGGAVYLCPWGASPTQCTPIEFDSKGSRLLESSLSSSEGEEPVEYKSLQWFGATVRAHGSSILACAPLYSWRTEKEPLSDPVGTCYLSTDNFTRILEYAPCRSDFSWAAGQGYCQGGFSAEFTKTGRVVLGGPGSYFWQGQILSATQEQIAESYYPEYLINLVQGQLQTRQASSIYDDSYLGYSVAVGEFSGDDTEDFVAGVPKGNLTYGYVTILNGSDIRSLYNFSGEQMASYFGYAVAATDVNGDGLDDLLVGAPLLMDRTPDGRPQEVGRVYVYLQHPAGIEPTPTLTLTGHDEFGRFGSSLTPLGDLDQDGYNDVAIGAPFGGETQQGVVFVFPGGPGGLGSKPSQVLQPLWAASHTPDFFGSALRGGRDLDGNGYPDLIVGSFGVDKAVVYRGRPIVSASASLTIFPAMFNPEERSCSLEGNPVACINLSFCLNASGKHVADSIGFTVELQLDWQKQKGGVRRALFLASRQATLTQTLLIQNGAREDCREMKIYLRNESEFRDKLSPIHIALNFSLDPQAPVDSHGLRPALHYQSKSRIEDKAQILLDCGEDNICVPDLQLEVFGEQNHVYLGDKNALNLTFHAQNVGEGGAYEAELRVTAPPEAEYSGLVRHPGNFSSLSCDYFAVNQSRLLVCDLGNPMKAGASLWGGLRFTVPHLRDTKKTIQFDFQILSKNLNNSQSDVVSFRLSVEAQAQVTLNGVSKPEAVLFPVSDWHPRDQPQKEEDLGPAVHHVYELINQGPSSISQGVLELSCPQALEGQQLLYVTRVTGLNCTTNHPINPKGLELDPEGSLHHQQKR
T1 sequence (P08648 895-1049 partner limits assumed): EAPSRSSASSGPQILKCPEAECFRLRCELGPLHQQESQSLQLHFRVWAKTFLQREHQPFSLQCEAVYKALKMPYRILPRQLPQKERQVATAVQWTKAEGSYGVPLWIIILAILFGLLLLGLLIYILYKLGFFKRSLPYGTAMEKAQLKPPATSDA
T1 sequence (P05556 21-798): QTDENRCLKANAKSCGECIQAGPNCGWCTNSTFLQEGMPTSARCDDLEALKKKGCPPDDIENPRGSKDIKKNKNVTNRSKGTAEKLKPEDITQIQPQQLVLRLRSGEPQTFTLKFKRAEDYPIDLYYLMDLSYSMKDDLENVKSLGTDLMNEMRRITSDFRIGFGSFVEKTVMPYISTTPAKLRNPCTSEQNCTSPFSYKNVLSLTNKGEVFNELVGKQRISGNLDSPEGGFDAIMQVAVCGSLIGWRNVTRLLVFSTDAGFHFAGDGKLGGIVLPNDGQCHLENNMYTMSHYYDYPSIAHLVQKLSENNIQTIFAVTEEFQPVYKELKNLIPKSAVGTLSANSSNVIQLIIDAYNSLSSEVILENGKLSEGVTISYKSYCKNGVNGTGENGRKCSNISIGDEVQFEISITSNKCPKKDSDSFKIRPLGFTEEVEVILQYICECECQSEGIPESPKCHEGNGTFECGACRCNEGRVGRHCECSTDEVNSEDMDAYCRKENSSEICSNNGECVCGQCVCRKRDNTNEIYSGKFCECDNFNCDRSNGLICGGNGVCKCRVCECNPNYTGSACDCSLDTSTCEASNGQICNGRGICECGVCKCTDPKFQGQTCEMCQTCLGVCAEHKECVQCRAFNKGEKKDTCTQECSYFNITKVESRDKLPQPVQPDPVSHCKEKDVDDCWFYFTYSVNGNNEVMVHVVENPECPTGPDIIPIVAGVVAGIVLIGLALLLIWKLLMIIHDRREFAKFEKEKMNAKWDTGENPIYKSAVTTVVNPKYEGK

Substance: RPenGRGDWPCR
- Effect on time to full coronary occlusion ([1]; 3 mg/kg): ineffective
- Effect on time to full coronary occlusion [1, 5]: prevented occlusion throughout the duration of the study
- Ex vivo reduction of aggregation relative to control levels (platelets [2]; one hour): 20-58%
- Ex vivo reduction of aggregation relative to control levels (platelets [2]; three and five hours, listed as 4R): 75-100% and 72-100%
- Ex vivo platelet response to all modes of stimulation (platelets [2]; 10 mg/kg injection, all time points): unresponsive to all modes of stimulation

Substance: GPenGHRGDLRCA
- Ex vivo platelet response to ADP (platelets [3]): completely unresponsive
- Effect on time to full coronary occlusion [1, 5]: did not significantly influence
- Ex vivo inhibition of ADP-stimulated aggregation (platelets [2]; 10 mg/kg injection, 1, 3 and 5 h): substantially inhibited
- Ex vivo inhibition of AA-stimulated aggregation relative to control levels (platelets [2]; [6]): 43-70%
- Ex vivo inhibition of collagen-stimulated aggregation relative to control levels (platelets [2]; [6]): 12-50%

Substance: RPenGHRGDWRCR
- Effect on time to full coronary occlusion ([1]; 5 mg/kg bolus + 5 mg/kg/hr infusion, intra-atrial): significantly prolonged the time to occlusion
- Thrombus formation in animals with low platelet levels ([1]; 5 mg/kg, circulating platelet levels one-third of normal): able to prevent thrombus formation
- Effect on time to full coronary occlusion [1, 5]: completely prevented occlusion
- Ex vivo inhibition of platelet activation by collagen (platelets [2]; 5 mg/kg injection): near-maximal inhibition
- Ex vivo platelet response to ADP and AA (platelets [2]; 5 mg/kg injection, all three time points): completely unresponsive
- Ex vivo anti-aggregation effect at low platelet count (platelets [2]; 5 mg/kg injection, platelet count ca. one-third of normal (104,000/ml vs. 361,000/ml)): more pronounced

Substance: VRGDSPDG
- IC50 [4]: 40 nM

Substance: YRGDSPDG
- IC50 [4]: 1100 nM
